# Laboratory results from PubChem BioAssay (NCI).
#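 Following 48 hours of exposure in 96-well plates, responses at five concentrations were used to interpolate endpoints linearly. GI50 = concentration required for 50% inhibition of growth. At the TGI there is no net growth.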
# Key:
# Assay in all cases: inhibition of tumour cell growth, NCI panel, 48 h
# OVCAR-5 ovarian = tested on: OVCAR-5 ovarian
# IGROV1 ovarian = tested on: IGROV1 ovarian
# HCC-2998 colon = tested on: HCC-2998 colon
# CCRF-CEM leukemia = tested on: CCRF-CEM leukemia
# K-562 leukemia = tested on: K-562 leukemia
# MALME-3M melanoma = tested on: MALME-3M melanoma
# EKVX NSCLC = tested on: EKVX NSCLC
# COLO 205 colon = tested on: COLO 205 colon
# UACC-257 melanoma = tested on: UACC-257 melanoma
# LOX IMVI melanoma = tested on: LOX IMVI melanoma
# MCF7 breast = tested on: MCF7 breast
# OVCAR-8 ovarian = tested on: OVCAR-8 ovarian
# MDA-N = tested on: MDA-N
# SN12C renal = tested on: SN12C renal
# KM12 colon = tested on: KM12 colon
# NCI-H226 lung = tested on: NCI-H226 lung
# UACC-62 melanoma = tested on: UACC-62 melanoma
# NCI-H522 lung = tested on: NCI-H522 lung
# CAKI-1 renal = tested on: CAKI-1 renal
# M14 melanoma = tested on: M14 melanoma
# HOP-62 NSCLC = tested on: HOP-62 NSCLC
# A549 NSCLC = tested on: A549 NSCLC
# T-47D breast = tested on: T-47D breast
# SK-MEL-2 melanoma = tested on: SK-MEL-2 melanoma
# RPMI-8226 leukemia = tested on: RPMI-8226 leukemia
# OVCAR-3 ovarian = tested on: OVCAR-3 ovarian
# UO-31 renal = tested on: UO-31 renal
# MDA-MB-435 = tested on: MDA-MB-435
# SK-OV-3 ovarian = tested on: SK-OV-3 ovarian
# SK-MEL-5 melanoma = tested on: SK-MEL-5 melanoma
# SW-620 colon = tested on: SW-620 colon
# NCI-H23 lung = tested on: NCI-H23 lung
# SR leukemia = tested on: SR leukemia
# HS 578T breast = tested on: HS 578T breast
# HCT-15 colon = tested on: HCT-15 colon
# HT29 colon = tested on: HT29 colon
# HOP-92 NSCLC = tested on: HOP-92 NSCLC
# OVCAR-4 ovarian = tested on: OVCAR-4 ovarian
# NCI/ADR-RES ovarian = tested on: NCI/ADR-RES ovarian
# BT-549 breast = tested on: BT-549 breast
# HCT-116 colon = tested on: HCT-116 colon
# PC-3 prostate = tested on: PC-3 prostate
# MOLT-4 leukemia = tested on: MOLT-4 leukemia
# HL-60(TB) leukemia = tested on: HL-60(TB) leukemia
# MDA-MB-231 breast = tested on: MDA-MB-231 breast
# ACHN renal = tested on: ACHN renal
# 786-0 renal = tested on: 786-0 renal
# TK-10 renal = tested on: TK-10 renal
# DU-145 prostate = tested on: DU-145 prostate
# NCI-H460 lung = tested on: NCI-H460 lung
# A498 renal = tested on: A498 renal
# SF-268 CNS = tested on: SF-268 CNS
# SF-295 CNS = tested on: SF-295 CNS
# SF-539 CNS = tested on: SF-539 CNS
# SNB-19 CNS = tested on: SNB-19 CNS
# SK-MEL-28 melanoma = tested on: SK-MEL-28 melanoma
# U251 CNS = tested on: U251 CNS
# SNB-75 CNS = tested on: SNB-75 CNS
smiles,measurement,setting,value
O=c1[nH]cnc2c1ncn2C1CCC(CO)O1 (centres undefined),GI50,OVCAR-5 ovarian,> 1000 µM
same,TGI,OVCAR-5 ovarian,> 1000 µM
same,GI50,IGROV1 ovarian,> 1000 µM
same,TGI,IGROV1 ovarian,> 1000 µM
same,GI50,HCC-2998 colon,> 1000 µM
same,TGI,HCC-2998 colon,> 1000 µM
same,GI50,CCRF-CEM leukemia,> 1000 µM
same,TGI,CCRF-CEM leukemia,> 1000 µM
same,GI50,K-562 leukemia,> 1000 µM
same,TGI,K-562 leukemia,> 1000 µM
same,GI50,MALME-3M melanoma,> 1000 µM
same,TGI,MALME-3M melanoma,> 1000 µM
same,GI50,EKVX NSCLC,> 1000 µM
same,TGI,EKVX NSCLC,> 1000 µM
same,GI50,COLO 205 colon,> 1000 µM
same,TGI,COLO 205 colon,> 1000 µM
same,GI50,UACC-257 melanoma,> 1000 µM
same,TGI,UACC-257 melanoma,> 1000 µM
same,GI50,LOX IMVI melanoma,> 1000 µM
same,TGI,LOX IMVI melanoma,> 1000 µM
same,GI50,MCF7 breast,> 1000 µM
same,TGI,MCF7 breast,> 1000 µM
same,GI50,OVCAR-8 ovarian,> 1000 µM
same,TGI,OVCAR-8 ovarian,> 1000 µM
same,TGI,MDA-N,> 1000 µM
same,GI50,SN12C renal,> 1000 µM
same,TGI,SN12C renal,> 1000 µM
same,GI50,KM12 colon,> 1000 µM
same,TGI,KM12 colon,> 1000 µM
same,GI50,NCI-H226 lung,> 1000 µM
same,TGI,NCI-H226 lung,> 1000 µM
same,GI50,UACC-62 melanoma,> 1000 µM
same,TGI,UACC-62 melanoma,> 1000 µM
same,GI50,NCI-H522 lung,> 1000 µM
same,TGI,NCI-H522 lung,> 1000 µM
same,GI50,CAKI-1 renal,> 1000 µM
same,TGI,CAKI-1 renal,> 1000 µM
same,TGI,M14 melanoma,> 1000 µM
same,GI50,HOP-62 NSCLC,> 1000 µM
same,TGI,HOP-62 NSCLC,> 1000 µM
same,GI50,A549 NSCLC,> 1000 µM
same,TGI,A549 NSCLC,> 1000 µM
same,TGI,T-47D breast,> 1000 µM
same,GI50,SK-MEL-2 melanoma,> 1000 µM
same,TGI,SK-MEL-2 melanoma,> 1000 µM
same,GI50,RPMI-8226 leukemia,> 1000 µM
same,TGI,RPMI-8226 leukemia,> 1000 µM
same,GI50,OVCAR-3 ovarian,> 1000 µM
same,TGI,OVCAR-3 ovarian,> 1000 µM
same,TGI,UO-31 renal,> 1000 µM
same,TGI,MDA-MB-435,> 1000 µM
same,GI50,SK-OV-3 ovarian,> 1000 µM
same,TGI,SK-OV-3 ovarian,> 1000 µM
same,GI50,SK-MEL-5 melanoma,> 1000 µM
same,TGI,SK-MEL-5 melanoma,> 1000 µM
same,GI50,SW-620 colon,> 1000 µM
same,TGI,SW-620 colon,> 1000 µM
same,GI50,NCI-H23 lung,> 1000 µM
same,TGI,NCI-H23 lung,> 1000 µM
same,TGI,SR leukemia,> 1000 µM
same,TGI,HS 578T breast,> 1000 µM
same,GI50,HCT-15 colon,> 1000 µM
same,TGI,HCT-15 colon,> 1000 µM
same,GI50,HT29 colon,> 1000 µM
same,TGI,HT29 colon,> 1000 µM
same,GI50,HOP-92 NSCLC,> 1000 µM
same,TGI,HOP-92 NSCLC,> 1000 µM
same,GI50,OVCAR-4 ovarian,> 1000 µM
same,TGI,OVCAR-4 ovarian,> 1000 µM
same,GI50,NCI/ADR-RES ovarian,> 1000 µM
same,TGI,NCI/ADR-RES ovarian,> 1000 µM
same,TGI,BT-549 breast,> 1000 µM
same,GI50,HCT-116 colon,> 1000 µM
same,TGI,HCT-116 colon,> 1000 µM
same,TGI,PC-3 prostate,> 1000 µM
same,GI50,MOLT-4 leukemia,> 1000 µM
same,TGI,MOLT-4 leukemia,> 1000 µM
same,GI50,HL-60(TB) leukemia,> 1000 µM
same,TGI,HL-60(TB) leukemia,> 1000 µM
same,TGI,MDA-MB-231 breast,> 1000 µM
same,TGI,ACHN renal,> 1000 µM
same,TGI,786-0 renal,> 1000 µM
same,TGI,TK-10 renal,> 1000 µM
same,TGI,DU-145 prostate,> 1000 µM
CN(C)C1C(CO)OC(n2cnc3c(N)ncnc32)C1O (centres undefined),TGI,OVCAR-5 ovarian,> 100 µM
same,TGI,IGROV1 ovarian,> 100 µM
same,TGI,NCI-H460 lung,> 100 µM
same,TGI,CCRF-CEM leukemia,> 100 µM
same,TGI,A498 renal,> 100 µM
same,TGI,K-562 leukemia,> 100 µM
same,TGI,EKVX NSCLC,> 100 µM
same,TGI,COLO 205 colon,> 100 µM
same,TGI,UACC-257 melanoma,> 100 µM
same,TGI,LOX IMVI melanoma,> 100 µM
same,TGI,MCF7 breast,> 100 µM
same,TGI,OVCAR-8 ovarian,> 100 µM
same,TGI,SF-268 CNS,> 100 µM
same,TGI,MDA-N,> 100 µM
same,TGI,SN12C renal,> 100 µM
same,TGI,KM12 colon,> 100 µM
same,TGI,NCI-H226 lung,> 100 µM
same,TGI,UACC-62 melanoma,> 100 µM
same,TGI,NCI-H522 lung,> 100 µM
same,TGI,CAKI-1 renal,> 100 µM
same,TGI,SF-295 CNS,> 100 µM
same,TGI,M14 melanoma,> 100 µM
same,TGI,HOP-62 NSCLC,> 100 µM
same,TGI,SF-539 CNS,> 100 µM
same,TGI,A549 NSCLC,> 100 µM
same,TGI,T-47D breast,> 100 µM
same,TGI,SK-MEL-2 melanoma,> 100 µM
same,TGI,RPMI-8226 leukemia,> 100 µM
same,TGI,SNB-19 CNS,> 100 µM
same,TGI,OVCAR-3 ovarian,> 100 µM
same,TGI,UO-31 renal,> 100 µM
same,TGI,MDA-MB-435,> 100 µM
same,TGI,SK-OV-3 ovarian,> 100 µM
same,TGI,SK-MEL-5 melanoma,> 100 µM
same,TGI,SW-620 colon,> 100 µM
same,TGI,NCI-H23 lung,> 100 µM
same,TGI,SR leukemia,> 100 µM
same,TGI,HS 578T breast,> 100 µM
same,TGI,HCT-15 colon,> 100 µM
same,TGI,HT29 colon,> 100 µM
same,TGI,OVCAR-4 ovarian,> 100 µM
same,TGI,NCI/ADR-RES ovarian,> 100 µM
same,TGI,BT-549 breast,> 100 µM
same,TGI,HCT-116 colon,> 100 µM
same,TGI,PC-3 prostate,> 100 µM
same,TGI,MOLT-4 leukemia,> 100 µM
same,TGI,SK-MEL-28 melanoma,> 100 µM
same,TGI,HL-60(TB) leukemia,> 100 µM
same,TGI,U251 CNS,> 100 µM
same,TGI,MDA-MB-231 breast,> 100 µM
same,TGI,SNB-75 CNS,> 100 µM
same,TGI,ACHN renal,> 100 µM
same,TGI,786-0 renal,> 100 µM
same,TGI,TK-10 renal,> 100 µM
same,TGI,DU-145 prostate,> 100 µM
